Data on 15 molecules can be found in publication PMC11956013, “Structure–Activity Relationships and Evaluation of 2-(Heteroaryl-cycloalkyl)-1H-indoles as Tauopathy Positron Emission Tomography Radiotracers” (Journal of Medicinal Chemistry, 2025).

The target of one data set is M4 (h) (Homo sapiens, UniProt P08173). The data set is described as follows: M4 (h) (antagonist radioligand), Eurofins assay 96. To be noted: Specific binding; reference compound.
Another data set has as its target M3 (h) (Homo sapiens, UniProt P20309). To be noted: Specific binding; reference compound.
Another data set deals with T1, M5 (h) (Homo sapiens, UniProt P08912).
T1 sequence (P08912 1-532): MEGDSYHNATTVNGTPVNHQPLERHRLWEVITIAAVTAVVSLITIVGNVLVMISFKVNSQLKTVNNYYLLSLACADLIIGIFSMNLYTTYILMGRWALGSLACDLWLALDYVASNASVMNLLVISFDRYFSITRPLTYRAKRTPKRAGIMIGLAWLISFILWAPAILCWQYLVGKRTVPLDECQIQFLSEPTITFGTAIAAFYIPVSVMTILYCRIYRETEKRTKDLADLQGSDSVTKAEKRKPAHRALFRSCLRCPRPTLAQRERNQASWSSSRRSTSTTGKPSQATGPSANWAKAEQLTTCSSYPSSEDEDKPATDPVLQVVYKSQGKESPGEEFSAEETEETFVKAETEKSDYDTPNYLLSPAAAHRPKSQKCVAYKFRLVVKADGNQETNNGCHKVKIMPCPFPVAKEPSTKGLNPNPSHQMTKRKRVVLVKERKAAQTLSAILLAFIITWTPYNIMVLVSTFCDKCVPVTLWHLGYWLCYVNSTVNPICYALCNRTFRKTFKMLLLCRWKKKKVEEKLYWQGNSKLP
Description: M5 (h) (antagonist radioligand), Eurofins assay 97. The following applies: Specific binding, reference compound.

Data set [1] concerns the target T2, aggregated tau (mixed 3R/4R-tau) in AD brain tissue homogenates (Homo sapiens, UniProt P10636). Description: In vitro competition (Ki) assay versus [^3H]7, AD brain tissue homogenate. The data set is classed as binding. The following applies: radioligand [^3H]7 ∼1 nM.
Target sequence in this assay (P10636 623-695 limits assumed): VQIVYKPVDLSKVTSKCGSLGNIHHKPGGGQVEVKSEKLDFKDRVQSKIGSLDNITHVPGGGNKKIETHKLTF
The target of data set [2] is T3, aggregated tau (4R-tau) in CBD brain tissue homogenates (Homo sapiens, UniProt P10636). The data set is described as follows: In vitro competition (Ki) assay versus [^3H]75, CBD brain tissue homogenate. Format: binding. Also on record: from tissue; host or cells: post-mortem human CBD brain, middle frontal gyrus homogenate. The following applies: CBD brain tissue homogenate; radioligand [^3H]75; n = 3, mean ± SD.

Data set [3] concerns the target T4, aggregated tau (4R-tau) in PSP brain tissue homogenates (Homo sapiens, UniProt P10636).
T4 construct: from tissue
Description: In vitro competition (Ki) assay versus [^3H]7, PSP brain tissue homogenate. The data set is classed as binding. To be noted: radioligand [^3H]7 ∼1 nM.

Data set [4] concerns the target T2, aggregated tau (mixed 3R/4R-tau) in AD brain tissue homogenates. Also on record: method as in earlier work. The following applies: AD brain tissue homogenate; radioligand [^3H]3; read-out: Ki versus [^3H]3, AD tissue; cited from earlier work.
Target sequence in this assay (P10636 623-695 limits assumed): as above
Data set [5] has the same target. Description: In vitro competition (Ki) assay versus [^3H]75, AD brain tissue homogenate. The following applies: AD brain tissue homogenate; radioligand [^3H]75; n = 3, mean ± SD. Format: binding.
Target sequence in this assay (P10636 623-695 limits assumed): as above
The target in data set [6] is T4, aggregated tau (4R-tau) in PSP brain tissue homogenates. Description: In vitro competition (Ki) assay versus [^3H]75, PSP brain tissue homogenate. To be noted: PSP brain tissue homogenate; radioligand [^3H]75; n = 3, mean ± SD. The data set is classed as binding.
Data set [7] addresses T5, aggregated tau (3R-tau) in PiD brain tissue homogenates (Homo sapiens, UniProt P10636).
T5 construct: or only 3R-tau aggregates (PiD middle frontal gyrus); from tissue; host or cells: post-mortem human PiD brain, middle frontal gyrus homogenate
The data set is described as follows: In vitro competition (Ki) assay versus [^3H]75, PiD brain tissue homogenate. Format: binding. The following applies: PiD brain tissue homogenate; radioligand [^3H]75; n = 3, mean ± SD.

The target in data set [8] is T4, aggregated tau (4R-tau) in PSP brain tissue homogenates. Also on record: method as in earlier work. The following applies: PSP brain tissue homogenate; radioligand [^3H]3; read-out: Ki versus [^3H]3, PSP tissue; cited from earlier work.
Data set [9] has as its target T2, aggregated tau (mixed 3R/4R-tau) in AD brain tissue homogenates. The data set is described as follows: In vitro competition (Ki) assay versus [^3H]8, AD brain tissue homogenate. Format: binding. To be noted: radioligand [^3H]8 ∼1 nM.
Target sequence in this assay (P10636 623-708 limits assumed): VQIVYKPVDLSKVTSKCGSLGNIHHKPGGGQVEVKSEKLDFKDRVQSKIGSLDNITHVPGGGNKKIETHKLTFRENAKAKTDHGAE
Data set [10] addresses T3, aggregated tau (4R-tau) in CBD brain tissue homogenates. The arrangement: from tissue; host or cells: post-mortem human CBD brain, middle frontal gyrus homogenate; method as in earlier work. To be noted: CBD brain tissue homogenate; radioligand [^3H]3; read-out: Ki versus [^3H]3, CBD tissue; cited from earlier work.
Data set [11] shares this target. To be noted: read-out: Ki versus [^3H]7, CBD tissue; CBD brain tissue homogenate; radioligand [^3H]7 ∼1 nM.
Data set [12] has the same target. To be noted: read-out: Ki versus [^3H]8, CBD tissue; CBD brain tissue homogenate; radioligand [^3H]8 ∼1 nM.
Data set [13] has as its target T4, aggregated tau (4R-tau) in PSP brain tissue homogenates. The data set is described as follows: In vitro competition (Ki) assay versus [^3H]8, PSP brain tissue homogenate. Format: binding. The following applies: radioligand [^3H]8 ∼1 nM.
Data set [14] has the same target. The data set is described as follows: In vitro competition (Ki) assay versus [^3H]3, PSP brain tissue homogenate. The following applies: radioligand [^3H]3 ∼1 nM. Format: binding.
In data set [15] the target is T2, aggregated tau (mixed 3R/4R-tau) in AD brain tissue homogenates. Description: In vitro competition (Ki) assay versus [^3H]3, AD brain tissue homogenate. The data set is classed as binding. The following applies: radioligand [^3H]3 ∼1 nM.
Target sequence in this assay (P10636 623-695 limits assumed): as the sequence (P10636 623-695 limits assumed) above
Data set [16] addresses T3, aggregated tau (4R-tau) in CBD brain tissue homogenates. The data set is described as follows: In vitro competition (Ki) assay versus [^3H]3, CBD brain tissue homogenate. To be noted: radioligand [^3H]3 ∼1 nM. Also on record: from tissue; host or cells: post-mortem human CBD brain, middle frontal gyrus homogenate. Format: binding.
Data set [17] shares this target. The data set is described as follows: biochemical.
Data set [18] addresses Adenosine Guinea Pig Transporter (Cavia porcellus, UniProt H0V4R7). The data set is described as follows: Adenosine Guinea Pig Transporter Mass Spectrometry Binding (Antagonist Ligand) Assay, Cerep. To be noted: reference compound.
For another data set, the target named is CYP1A2 (Homo sapiens, UniProt P05177). To be noted: In Vitro Metabolism; HLM, Tacrine substrate; reference compound.
Another data set addresses CYP2C19 (Homo sapiens, UniProt P33261). To be noted: In Vitro Metabolism; HLM, Omeprazole substrate; reference compound.
The target of the next data set is CYP2D6 (Homo sapiens, UniProt P10635). To be noted: In Vitro Metabolism; HLM, Dextromethorphan substrate; reference compound.
The next data set addresses D1 (h) (Homo sapiens, UniProt P21728). To be noted: Specific binding; reference compound.
The target of another data set is D2L (h) (Homo sapiens, UniProt P14416). The following applies: Specific binding; reference compound.
The target of the next data set is GR (h) (Homo sapiens, UniProt P04150). The following applies: Specific binding; reference compound.
In data set [19] the target is Non-Selective Rat Glycine Ion Channel (Rattus norvegicus, UniProt P07727). The data set is described as follows: Non-Selective Rat Glycine Ion Channel Strychnine Mass Spectrometry Binding Assay, Cerep.
Another data set concerns the target MT1 (ML1A) (h) (Homo sapiens, UniProt P48039). The data set is described as follows: Eurofins panel: MT1 (ML1A) (h) (agonist radioligand). The data set is classed as binding. The arrangement: purchased Eurofins (CNS SafetyScreen panel, contract assay) assay 1538. To be noted: reference compound.
Another data set deals with M2 (h) (Homo sapiens, UniProt P08172). To be noted: Specific binding; reference compound.
Data set [20] has as its target Ca2+ channel (L, dihydropyridine site) (Rattus norvegicus, UniProt P22002). The data set is described as follows: Eurofins panel: Ca2+ channel (L, dihydropyridine site) (antagonist radioligand). The following applies: reference compound.
In data set [21] the target is COMT (catechol- O-methyl transferase). The data set is described as follows: COMT (catechol- O-methyl transferase), Eurofins assay 457. Format: biochemical. The following applies: Enzymatic activity; reference compound; read-out: Concurrent IC50.

Values joined by “and” are separate entries in the source; they are usually repeats but may differ in a detail not shown here. Identical values can stand only once. Like-named read-outs stand apart in the source and are kept apart here.

T3 sequence (P10636 1-441 isoform P10636-8): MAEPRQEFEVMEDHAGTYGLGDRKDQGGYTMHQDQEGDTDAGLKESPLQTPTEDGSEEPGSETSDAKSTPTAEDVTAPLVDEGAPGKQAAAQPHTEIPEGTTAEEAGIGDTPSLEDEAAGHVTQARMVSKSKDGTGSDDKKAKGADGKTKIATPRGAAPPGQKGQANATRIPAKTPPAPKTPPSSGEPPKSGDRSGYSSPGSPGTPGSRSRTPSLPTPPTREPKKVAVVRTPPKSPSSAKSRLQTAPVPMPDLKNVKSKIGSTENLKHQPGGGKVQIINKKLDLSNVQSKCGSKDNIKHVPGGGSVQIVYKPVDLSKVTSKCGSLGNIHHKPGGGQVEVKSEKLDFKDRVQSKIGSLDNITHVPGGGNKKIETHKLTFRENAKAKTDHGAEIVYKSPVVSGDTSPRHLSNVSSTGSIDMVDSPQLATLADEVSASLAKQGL
T4 sequence (P10636 1-441 isoform P10636-8): as above
T5 sequence (P10636 1-410 isoform P10636-5): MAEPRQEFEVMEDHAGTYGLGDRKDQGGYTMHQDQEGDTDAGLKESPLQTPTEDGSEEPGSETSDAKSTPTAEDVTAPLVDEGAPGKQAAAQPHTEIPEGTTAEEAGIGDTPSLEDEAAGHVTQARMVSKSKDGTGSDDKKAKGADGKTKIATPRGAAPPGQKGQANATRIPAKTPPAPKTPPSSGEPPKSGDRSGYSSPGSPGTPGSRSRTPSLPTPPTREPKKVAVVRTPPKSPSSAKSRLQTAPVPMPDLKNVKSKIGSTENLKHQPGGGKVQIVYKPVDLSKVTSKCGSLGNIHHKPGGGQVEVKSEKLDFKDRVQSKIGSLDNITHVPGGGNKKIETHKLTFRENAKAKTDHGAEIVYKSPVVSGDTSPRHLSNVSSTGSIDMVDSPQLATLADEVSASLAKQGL
Sequence of M4 (h) (P08173 whole entry): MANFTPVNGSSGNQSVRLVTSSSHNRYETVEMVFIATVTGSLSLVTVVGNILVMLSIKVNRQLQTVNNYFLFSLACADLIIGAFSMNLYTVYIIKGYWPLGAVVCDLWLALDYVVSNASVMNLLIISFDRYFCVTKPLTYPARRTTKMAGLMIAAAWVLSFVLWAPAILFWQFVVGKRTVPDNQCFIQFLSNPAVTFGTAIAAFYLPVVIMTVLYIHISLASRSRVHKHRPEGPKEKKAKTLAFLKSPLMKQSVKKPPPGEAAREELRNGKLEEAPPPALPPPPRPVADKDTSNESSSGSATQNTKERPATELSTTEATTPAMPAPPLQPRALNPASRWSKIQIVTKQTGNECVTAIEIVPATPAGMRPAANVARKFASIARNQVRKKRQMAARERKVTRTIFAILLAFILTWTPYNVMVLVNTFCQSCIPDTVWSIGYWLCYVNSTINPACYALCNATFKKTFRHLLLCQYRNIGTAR
Sequence of Adenosine Guinea Pig Transporter (H0V4R7 1-461): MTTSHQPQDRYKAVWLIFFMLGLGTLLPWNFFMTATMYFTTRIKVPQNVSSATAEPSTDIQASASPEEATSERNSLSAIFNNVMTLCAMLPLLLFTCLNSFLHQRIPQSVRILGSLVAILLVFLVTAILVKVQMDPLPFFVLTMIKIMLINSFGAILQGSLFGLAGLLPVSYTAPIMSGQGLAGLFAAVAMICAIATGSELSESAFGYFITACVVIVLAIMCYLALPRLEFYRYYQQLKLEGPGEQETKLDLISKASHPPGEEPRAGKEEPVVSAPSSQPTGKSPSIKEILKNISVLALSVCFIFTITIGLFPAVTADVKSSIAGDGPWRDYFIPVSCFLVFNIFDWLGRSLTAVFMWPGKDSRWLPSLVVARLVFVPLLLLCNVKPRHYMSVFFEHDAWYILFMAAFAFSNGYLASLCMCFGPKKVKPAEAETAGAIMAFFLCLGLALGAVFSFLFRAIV
Sequence of Ca2+ channel (L, dihydropyridine site) (P22002 whole entry): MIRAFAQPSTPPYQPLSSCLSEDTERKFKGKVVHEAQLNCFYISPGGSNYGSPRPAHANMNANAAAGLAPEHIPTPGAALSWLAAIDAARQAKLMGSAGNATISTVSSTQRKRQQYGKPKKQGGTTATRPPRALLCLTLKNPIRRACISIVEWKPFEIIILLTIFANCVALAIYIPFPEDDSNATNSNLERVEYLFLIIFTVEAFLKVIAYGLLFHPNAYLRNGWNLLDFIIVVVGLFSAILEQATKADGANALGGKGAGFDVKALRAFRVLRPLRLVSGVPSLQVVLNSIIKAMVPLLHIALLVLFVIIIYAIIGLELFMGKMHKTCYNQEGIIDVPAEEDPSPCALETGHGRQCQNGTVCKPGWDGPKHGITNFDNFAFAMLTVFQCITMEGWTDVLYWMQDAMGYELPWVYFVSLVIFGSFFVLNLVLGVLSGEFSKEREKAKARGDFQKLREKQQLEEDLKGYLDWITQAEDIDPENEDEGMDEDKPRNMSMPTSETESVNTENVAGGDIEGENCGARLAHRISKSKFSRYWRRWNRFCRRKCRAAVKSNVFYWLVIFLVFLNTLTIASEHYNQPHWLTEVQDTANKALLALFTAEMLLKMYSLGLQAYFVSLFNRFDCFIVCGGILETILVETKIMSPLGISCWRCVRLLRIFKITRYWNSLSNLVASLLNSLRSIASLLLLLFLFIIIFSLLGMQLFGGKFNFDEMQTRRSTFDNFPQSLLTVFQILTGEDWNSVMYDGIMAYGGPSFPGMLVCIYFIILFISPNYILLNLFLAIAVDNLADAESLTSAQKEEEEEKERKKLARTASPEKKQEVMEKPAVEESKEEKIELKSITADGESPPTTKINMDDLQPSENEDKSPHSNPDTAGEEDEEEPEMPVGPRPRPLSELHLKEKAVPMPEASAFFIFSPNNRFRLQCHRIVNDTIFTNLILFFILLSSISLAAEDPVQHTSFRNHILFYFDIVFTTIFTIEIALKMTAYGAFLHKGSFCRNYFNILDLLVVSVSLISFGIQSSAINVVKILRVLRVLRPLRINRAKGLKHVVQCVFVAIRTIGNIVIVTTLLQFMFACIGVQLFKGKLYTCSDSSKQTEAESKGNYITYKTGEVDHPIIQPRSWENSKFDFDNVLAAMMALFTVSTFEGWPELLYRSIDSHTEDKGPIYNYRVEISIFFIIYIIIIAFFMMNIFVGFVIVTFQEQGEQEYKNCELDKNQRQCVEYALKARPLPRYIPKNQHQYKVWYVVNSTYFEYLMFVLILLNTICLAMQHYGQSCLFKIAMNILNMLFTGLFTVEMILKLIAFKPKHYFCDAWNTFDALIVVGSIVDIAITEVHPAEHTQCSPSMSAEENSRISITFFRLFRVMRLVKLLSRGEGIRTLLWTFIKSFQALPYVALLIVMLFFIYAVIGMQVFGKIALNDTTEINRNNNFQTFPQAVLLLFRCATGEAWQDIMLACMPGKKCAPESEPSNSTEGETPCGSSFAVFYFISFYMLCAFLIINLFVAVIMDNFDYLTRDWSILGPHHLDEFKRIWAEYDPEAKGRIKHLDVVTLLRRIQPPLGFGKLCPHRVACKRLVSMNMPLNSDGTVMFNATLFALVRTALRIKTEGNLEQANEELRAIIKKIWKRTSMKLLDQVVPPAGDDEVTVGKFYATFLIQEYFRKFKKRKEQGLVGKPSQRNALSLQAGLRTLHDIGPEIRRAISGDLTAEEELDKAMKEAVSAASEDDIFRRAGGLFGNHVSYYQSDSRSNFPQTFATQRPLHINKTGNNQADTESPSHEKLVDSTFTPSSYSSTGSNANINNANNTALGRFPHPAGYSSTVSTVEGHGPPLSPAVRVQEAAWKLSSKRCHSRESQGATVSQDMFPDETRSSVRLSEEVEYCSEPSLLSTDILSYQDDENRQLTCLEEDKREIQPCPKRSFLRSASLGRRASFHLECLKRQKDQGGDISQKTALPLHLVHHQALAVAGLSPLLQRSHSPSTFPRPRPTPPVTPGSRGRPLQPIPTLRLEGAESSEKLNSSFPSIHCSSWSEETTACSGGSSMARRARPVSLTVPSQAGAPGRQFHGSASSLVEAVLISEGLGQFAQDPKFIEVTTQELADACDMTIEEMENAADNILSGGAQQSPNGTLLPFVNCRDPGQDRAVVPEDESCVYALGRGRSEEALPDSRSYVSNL
Sequence of CYP2D6 (P10635 whole entry): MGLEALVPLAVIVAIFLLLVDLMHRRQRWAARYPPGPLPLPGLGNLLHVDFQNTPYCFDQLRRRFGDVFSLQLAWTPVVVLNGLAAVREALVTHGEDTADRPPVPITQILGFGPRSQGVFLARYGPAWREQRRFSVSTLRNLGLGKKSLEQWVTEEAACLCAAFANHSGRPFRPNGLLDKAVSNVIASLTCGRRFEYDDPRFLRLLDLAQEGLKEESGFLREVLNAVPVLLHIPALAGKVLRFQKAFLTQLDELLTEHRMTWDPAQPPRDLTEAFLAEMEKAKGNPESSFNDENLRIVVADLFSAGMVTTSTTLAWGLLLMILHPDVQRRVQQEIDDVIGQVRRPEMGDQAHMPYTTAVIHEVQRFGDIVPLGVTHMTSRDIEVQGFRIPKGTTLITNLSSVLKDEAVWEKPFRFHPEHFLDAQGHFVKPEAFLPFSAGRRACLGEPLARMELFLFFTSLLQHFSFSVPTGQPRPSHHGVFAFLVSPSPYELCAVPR

For `C[N+]1(C)CCC(OC(=O)C(c2ccccc2)c2ccccc2)CC1.[I-]` [Compound 4-DAMP], the nH worked out at 1.959 on M4 (h), 1.577 on M3 (h) and 1.178 on M5 (h). The IC50 on M5 (h) (read-out: Concurrent IC50) was determined as 2.35 nM. The inhibition constant Ki at M5 (h) (read-out: Concurrent Ki) stood at 1.17 nM.
Regarding `Fc1ccc2cc(-c3cnc(N4CCOCC4)nc3)[nH]c2c1` [Compound 8], the Ki in data set [1] is 8.4 nM; in data set [2] it was 16 nM; in data set [3], 13 nM; in [4] it was 22 nM; in data set [5], ~15 nM and 15 nM; in data set [6], ~15 nM and 15 nM. For the same molecule, the Ki in data set [7] was ~24 nM and 24 nM; in data set [8], 18 nM; in data set [9], 7.7 ± 0.6 nM; in data set [10] it was 19 nM; in [11], 11 nM; in data set [12], 11 ± 1.3 nM. Moreover, in data set [13], the inhibitory constant (Ki) was 8.5 ± 1.2 nM.
As to `O[C@H]1CCN(c2ccc(-c3cc4ccc(F)cc4[nH]3)cn2)C1` [Compound 9, reference compound], the inhibitory constant (Ki) was 11 nM in data set [1]; 8.9 nM in [3]; 37 nM in [14]; 33 nM in [15]; 10 nM in data set [9]; 40 nM in data set [16]. The Ki in data set [13] was 11 nM; in data set [17], 15 nM.
Regarding `COc1cc(C(=O)OCCCN2CCCN(CCCOC(=O)c3cc(OC)c(OC)c(OC)c3)CC2)cc(OC)c1OC` [Dilazep], the “nH, Specific binding” value in data set [18] was found to be 1.337.
On to `Cc1nc2c([nH]1)c(=O)n(C)c(=O)n2Cc1ccco1` [Furafylline], for which the nH on CYP1A2 was found to be 0.9709.
The molecule `CCN(CC)CC#CCOC(=O)C(O)(c1ccccc1)C1CCCCC1` (centres unmarked) [Oxybutynin] displayed a nH at CYP2C19 of 0.7474.
The molecule `C=C[C@H]1C[N@@]2CC[C@H]1C[C@@H]2[C@@H](O)c1ccnc2ccc(OC)cc12` [Quinidine] returned a nH on CYP2D6 of 0.9681.
In the case of `CN1CCc2cc(Cl)c(O)cc2[C@@H](c2ccccc2)C1` [SCH 23390], the nH at D1 (h) turned out to be 1.03.
On D2L (h), `CC(C)(C)[C@]1(O)CCN2C[C@H]3c4ccccc4CCc4cccc(c43)[C@@H]2C1` [butaclamol] yielded a nH of 0.9951.
For the molecule `C[C@@H]1C[C@H]2[C@@H]3CCC4=CC(=O)C=C[C@]4(C)[C@@]3(F)[C@@H](O)C[C@]2(C)[C@@]1(O)C(=O)CO` [dexamethasone], the nH at GR (h) is listed as 1.051.
Consider `N=C(N)N/N=C/c1c(Cl)cccc1Cl` [guanabenz], for which the “nH, Specific binding” value in [19] is 1.024.
As to `COc1ccc2[nH]cc(CCNC(C)=O)c2c1` [melatonin], on MT1 (ML1A) (h), the “nH, Specific binding” value is given as 1.177.
`COc1ccccc1CNCCCCCCNCCCCCCCCNCCCCCCNCc1ccccc1OC` [methoctramine] registered a nH on M2 (h) of 1.382.
`CCOC(=O)C1=C(C)NC(C)=C(C(=O)OC)C1c1cccc([N+](=O)[O-])c1` (centres unmarked) [nitrendipine]: in data set [20], the “nH, Specific binding” value is reported as 1.077.
Regarding Ro 41-0960, in data set [21], the IC50 was determined as 23 nM.

By IC50 is commonly meant the concentration at which inhibition is half-maximal. As a reminder, the Ki is the equilibrium dissociation constant of an inhibitor or competing ligand from its target.
